We go through 23 molecules from patent US8791107B2, “N-substituted oxazinopteridines and oxazinopteridinones” (Takeda Pharmaceutical Company Limited, priority 2011, dated 2014).

Structures are written as SMILES.

T1 sequence (O00329 whole entry): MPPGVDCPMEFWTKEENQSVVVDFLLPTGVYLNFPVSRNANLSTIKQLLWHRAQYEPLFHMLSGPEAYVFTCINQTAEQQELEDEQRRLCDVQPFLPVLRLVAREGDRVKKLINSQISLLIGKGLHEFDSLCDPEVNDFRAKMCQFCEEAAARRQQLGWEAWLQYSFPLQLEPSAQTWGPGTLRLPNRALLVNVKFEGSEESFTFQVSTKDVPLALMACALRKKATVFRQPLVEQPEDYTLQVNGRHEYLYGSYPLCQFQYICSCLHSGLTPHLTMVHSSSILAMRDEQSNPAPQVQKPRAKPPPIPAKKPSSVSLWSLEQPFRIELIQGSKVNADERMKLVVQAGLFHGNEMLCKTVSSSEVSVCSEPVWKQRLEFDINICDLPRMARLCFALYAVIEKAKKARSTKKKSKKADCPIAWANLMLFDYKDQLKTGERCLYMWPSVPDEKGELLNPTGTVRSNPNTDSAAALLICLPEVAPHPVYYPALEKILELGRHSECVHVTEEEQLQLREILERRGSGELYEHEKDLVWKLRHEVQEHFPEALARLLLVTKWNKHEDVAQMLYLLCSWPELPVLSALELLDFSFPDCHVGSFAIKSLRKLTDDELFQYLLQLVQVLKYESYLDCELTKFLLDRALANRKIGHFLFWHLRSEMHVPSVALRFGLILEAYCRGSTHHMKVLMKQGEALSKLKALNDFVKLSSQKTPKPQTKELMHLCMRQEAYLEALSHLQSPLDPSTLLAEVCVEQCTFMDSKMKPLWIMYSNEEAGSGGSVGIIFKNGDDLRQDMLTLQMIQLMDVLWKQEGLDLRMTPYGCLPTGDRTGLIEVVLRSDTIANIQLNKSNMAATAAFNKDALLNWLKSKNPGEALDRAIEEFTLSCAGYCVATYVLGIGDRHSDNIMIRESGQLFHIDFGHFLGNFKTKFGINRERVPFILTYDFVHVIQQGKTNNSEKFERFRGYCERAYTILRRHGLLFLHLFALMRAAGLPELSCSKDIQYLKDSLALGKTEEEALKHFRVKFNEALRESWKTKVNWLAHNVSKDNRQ
T1 sequence (P27986 whole entry partner): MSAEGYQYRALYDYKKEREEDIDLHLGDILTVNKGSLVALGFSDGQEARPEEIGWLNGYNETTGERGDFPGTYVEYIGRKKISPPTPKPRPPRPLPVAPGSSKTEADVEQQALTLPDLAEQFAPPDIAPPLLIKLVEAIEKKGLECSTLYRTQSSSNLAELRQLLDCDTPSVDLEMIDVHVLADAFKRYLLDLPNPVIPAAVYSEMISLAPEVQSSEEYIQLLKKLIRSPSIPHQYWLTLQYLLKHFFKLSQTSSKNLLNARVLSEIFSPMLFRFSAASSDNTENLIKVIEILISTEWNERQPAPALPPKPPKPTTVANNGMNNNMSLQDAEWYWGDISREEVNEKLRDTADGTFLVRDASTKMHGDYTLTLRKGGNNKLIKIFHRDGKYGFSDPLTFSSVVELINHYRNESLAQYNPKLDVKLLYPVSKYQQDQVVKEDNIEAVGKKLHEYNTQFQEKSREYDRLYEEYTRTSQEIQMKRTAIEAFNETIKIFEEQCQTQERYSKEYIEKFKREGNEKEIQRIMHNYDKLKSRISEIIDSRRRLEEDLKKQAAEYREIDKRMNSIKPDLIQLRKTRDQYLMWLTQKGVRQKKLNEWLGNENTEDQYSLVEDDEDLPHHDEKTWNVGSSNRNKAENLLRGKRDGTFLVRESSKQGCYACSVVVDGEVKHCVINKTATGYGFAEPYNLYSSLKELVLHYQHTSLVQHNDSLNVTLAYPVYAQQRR

The test concerns the target T1, PI3Kδ (Homo sapiens, UniProt O00329).
T1 construct: The protein is full length and co-expressed with untagged PIK3R1; GST; purchased Invitrogen PV5274
Description: PI3Kδ inhibition, modified PIK3CD Adapta TR-FRET assay. Conditions: recombinant GST-tagged full length PIK3CD co-expressed with PIK3R1 (p85α); 2 μM ATP, 50 μM PIP2; read-out: PI3Kδ Inhibition (pIC50) (converted). The test is classed as biochemical. On the procedure: The activity of compounds as PI3Kδ inhibitors may be determined by a variety of methods, including in vitro and in vivo methods. The following in vitro assay measures a test compound's ability to inhibit PI3Kδ-mediated phosphorylation of PIP2 and ATP.
Recombinant GST-tagged PIK3CD is purchased from Invitrogen (Part Number: PV5274). The protein is full length and co-expressed with untagged PIK3R1, phosphoinositide-3-kinase regulatory subunit 1 (p85α). The protein is stored at −20° C. in 50 mM TRIS (pH 7.5), 150 mM NaCl, 0.5 mM EDTA, 0.02% Triton® X-100, 2 mM DTT, and 50% glycerol.
A modified PIK3CD Adapta® assay (Invitrogen, Carlsbad, Calif.) is used to measure PI3Kδ inhibition of the example compounds. The assay has two phases. In the first phase, kinase reaction components, which include the enzyme (PIK3CD), substrates (PIP2, ATP), test compound (inhibitor), and assay buffer are added to each well, and the reaction is allowed to incubate for a pre-determined period of time. […] In the presence of the inhibitor, the amount of ADP formed by the kinase reaction is reduced, and the resulting intact antibody-tracer interaction maintains a high TR-FRET signal.
The reaction buffer contains 50 mM Hepes (pH 7.5), 3 mM MgCl2, 1 mM EGTA, 100 mM NaCl, 0.03% CHAPS; 2 mM DTT is added fresh prior to each experiment. […] Next, test compounds (2 μL) from a source plate (5% dilution plate) are introduced into the wells. The final DMSO concentration in each assay well is 1%. […] Other wells contain test compounds serially diluted across the plate 11 times for a total of 12 data points. The kinase reactions are carried out at room temperature and are initiated by the addition of 4 μL of solution containing 2 μM ATP and 50 μM PIP2. […] This emission signal is referenced or “ratioed” to the emission from Eu at 620 nm. […] The percent inhibition for a given inhibitor concentration is computed from % conversion for the reaction and for the positive and negative controls.
In general terms: In TR-FRET formats the signal depends on donor and acceptor labels being close together.
Consider `c1ccc(-c2nc(CN3CC4COCCN4c4nc(-c5cccc6[nH]ccc56)ncc43)co2)cc1` (centres unmarked) [Example 37, 2-(1H-indol-4-yl)-5-((2-phenyloxazol-4-yl)methyl)-5,6,6a,7,9,10-hexahydro-[1,4]oxazino[3,4-h]pteridine], for which the IC50 was 316 nM. As for `CCc1nnc(C(C)N2C[C@@H]3COCCN3c3nc(-c4cccc(CO)c4)ncc32)o1` (stereo partly drawn) [Example 177, (3-((6aR)-5-(1-(5-ethyl-1,3,4-oxadiazol-2-yl)ethyl)-5,6,6a,7,9,10-hexahydro-[1,4]oxazino[3,4-h]pteridin-2-yl)phenyl)methanol], the figure is 2 nM. For `CNC(=O)Nc1ccc(-c2ncc3c(n2)N2CCOCC2CN3Cc2ccc(C)cc2)cc1` (centres unmarked) [Example 62, 1-methyl-3-(4-(5-(4-methylbenzyl)-5,6,6a,7,9,10-hexahydro-[1,4]oxazino[3,4-h]pteridin-2-yl)phenyl)urea], the IC50 was 794 nM. `Nc1ccc(-c2ncc3c(n2)N2CCOC[C@H]2CN3CC(=O)NCC2CCOCC2)cn1` [Example 221, (R)-2-(2-(6-aminopyridin-3-yl)-6a,7,9,10-tetrahydro-[1,4]oxazino[3,4-h]pteridin-5(6H)-yl)-N-((tetrahydro-2H-pyran-4-yl)methyl)acetamide]: the IC50 is 126 nM.

Regarding `CNC(=O)Nc1ccc(-c2ncc3c(n2)N2CCOCC2C(=O)N3Cc2cccc(-n3cccc3)c2)cc1` (centres unmarked) [Example 90, 1-(4-(5-(3-(1H-pyrrol-1-yl)benzyl)-6-oxo-5,6,6a,7,9,10-hexahydro-[1,4]oxazino[3,4-h]pteridin-2-yl)phenyl)-3-methylurea], the IC50 was 5.01 nM.

With `C[C@@H](c1ccc(Cl)cc1)N1C(=O)C2COCCN2c2nc(-c3cnc(N)nc3)ncc21` (mixture of isomers) [Example 162], the IC50 was 6.31 nM. Consider `CN(C)C(=O)CN1CC2COCCN2c2nc(-c3cccc4[nH]ccc34)ncc21` (centres unmarked) [Example 43, 2-(2-(1H-indol-4-yl)-6a,7,9,10-tetrahydro-[1,4]oxazino[3,4-h]pteridin-5(6H)-yl)-N,N-dimethylacetamide], for which the IC50 was 398 nM. For `CC(=O)N1CC2COCCN2c2nc(-n3c(C)nc4ccccc43)ncc21` (centres unmarked) [Example 56, 1-(2-(2-methyl-1H-benzo[d]imidazol-1-yl)-6a,7,9,10-tetrahydro-[1,4]oxazino[3,4-h]pteridin-5(6H)-yl)ethanone], the IC50 is 3160 nM. In the case of `Cc1c[nH]c2c(F)ccc(-c3ncc4c(n3)N3CCOCC3C(=O)N4Cc3ccc(S(C)(=O)=O)cc3)c12` (centres unmarked) [Example 143, 2-(7-fluoro-3-methyl-1H-indol-4-yl)-5-(4-(methylsulfonyl)benzyl)-6a,7,9,10-tetrahydro-[1,4]oxazino[3,4-h]pteridin-6(5H)-one], the IC50 is 2000 nM. As for `Cc1ccccc1N1C[C@@H]2COCCN2c2nc(-c3cccc4[nH]ccc34)ncc21` [Example 187, (R)-2-(1H-indol-4-yl)-5-(o-tolyl)-5,6,6a,7,9,10-hexahydro-[1,4]oxazino[3,4-h]pteridine], the figure is 126 nM; as for `CS(=O)(=O)c1ccc(CN2C[C@H]3COCCN3c3nc(-c4cccc5[nH]ccc45)ncc32)cc1` [Example 28, (S)-2-(1H-indol-4-yl)-5-(4-(methylsulfonyl)benzyl)-5,6,6a,7,9,10-hexahydro-[1,4]oxazino[3,4-h]pteridine], 631 nM. In the case of `O=C(CN1C[C@@H]2COCCN2c2nc(-c3cccc4[nH]ccc34)ncc21)NCc1cc[nH]n1` [Example 72, (R)-2-(2-(1H-indol-4-yl)-6a,7,9,10-tetrahydro-[1,4]oxazino[3,4-h]pteridin-5(6H)-yl)-N-((1H-pyrazol-3-yl)methyl)acetamide], the IC50 was 126 nM.

As to `O=C1C2COCCN2c2nc(-c3cccc4[nH]ccc34)ncc2N1C1CCc2ccc(Cl)cc21` (centres unmarked) [Example 146, 5-(6-chloro-2,3-dihydro-1H-inden-1-yl)-2-(1H-indol-4-yl)-6a,7,9,10-tetrahydro-[1,4]oxazino[3,4-h]pteridin-6(5H)-one], the IC50 was 31.6 nM. As to `COc1cc(C(N)=O)ccc1CN1CC2COCCN2c2nc(-c3cccc4[nH]ccc34)ncc21` (centres unmarked) [Example 79, 4-((2-(1H-indol-4-yl)-6a,7,9,10-tetrahydro-[1,4]oxazino[3,4-h]pteridin-5(6H)-yl)methyl)-3-methoxybenzamide], the IC50 is 50.1 nM. As for `Cc1ccccc1CNC(=O)CN1CC2COCCN2c2nc(-c3cccc4[nH]ccc34)ncc21` (centres unmarked) [Example 41, 2-(2-(1H-indol-4-yl)-6a,7,9,10-tetrahydro-[1,4]oxazino[3,4-h]pteridin-5(6H)-yl)-N-(2-methylbenzyl)acetamide], the figure is 31.6 nM; as for `O=C(O)CCCN1C[C@@H]2COCCN2c2nc(-c3cccc4[nH]ccc34)ncc21` [Example 196, (R)-4-(2-(1H-indol-4-yl)-6a,7,9,10-tetrahydro-[1,4]oxazino[3,4-h]pteridin-5(6H)-yl)butanoic acid], 6.31 nM; as for `CNC(=O)Nc1ccc(-c2ncc3c(n2)N2CCOCC2C(=O)N3Cc2ccc(-n3cncn3)cc2)cc1` (centres unmarked) [Example 92, 1-(4-(5-(4-(1H-1,2,4-triazol-1-yl)benzyl)-6-oxo-5,6,6a,7,9,10-hexahydro-[1,4]oxazino[3,4-h]pteridin-2-yl)phenyl)-3-methylurea], 2 nM.

For `CC(=O)Nc1ccc(-c2ncc3c(n2)N2CCOC[C@H]2CN3CC(=O)NCC2CCOCC2)cc1` [Example 224, (R)-2-(2-(4-acetamidophenyl)-6a,7,9,10-tetrahydro-[1,4]oxazino[3,4-h]pteridin-5(6H)-yl)-N-((tetrahydro-2H-pyran-4-yl)methyl)acetamide], the IC50 is 316 nM. With `CS(=O)(=O)c1ccc(CN2CC3COCCN3c3nc(-c4cnc(N)nc4)ncc32)cc1` (centres unmarked) [Example 4, 5-(5-(4-(methylsulfonyl)benzyl)-5,6,6a,7,9,10-hexahydro-[1,4]oxazino[3,4-h]pteridin-2-yl)pyrimidin-2-amine], the IC50 is 3.98 nM. As for `CC(C)(O)c1cccc(-c2ncc3c(n2)N2CCOC[C@H]2CN3CC(=O)NCC2CCOCC2)c1` [Example 83, (R)-2-(2-(3-(2-hydroxypropan-2-yl)phenyl)-6a,7,9,10-tetrahydro-[1,4]oxazino[3,4-h]pteridin-5(6H)-yl)-N-((tetrahydro-2H-pyran-4-yl)methyl)acetamide], the figure is 1000 nM; as for `O=C(CN1C[C@@H]2COCCN2c2nc(-c3cccc(CO)c3)ncc21)NCC1CCOCC1` [Example 82, (R)-2-(2-(3-(hydroxymethyl)phenyl)-6a,7,9,10-tetrahydro-[1,4]oxazino[3,4-h]pteridin-5(6H)-yl)-N-((tetrahydro-2H-pyran-4-yl)methyl)acetamide], 12.6 nM. As for `CS(=O)(=O)c1ccc(CN2C[C@@H]3COCCN3c3nc(-n4c(C(F)F)nc5ccccc54)ncc32)cc1` [Example 67, (R)-2-(2-(difluoromethyl)-1H-benzo[d]imidazol-1-yl)-5-(4-(methylsulfonyl)benzyl)-5,6,6a,7,9,10-hexahydro-[1,4]oxazino[3,4-h]pteridine], the figure is 5.01 nM; as for `Cc1nccn1-c1ncc2c(n1)N1CCOCC1C(=O)N2Cc1ccc(S(C)(=O)=O)cc1` (centres unmarked) [Example 156, 2-(2-methyl-1H-imidazol-1-yl)-5-(4-(methylsulfonyl)benzyl)-6a,7,9,10-tetrahydro-[1,4]oxazino[3,4-h]pteridin-6(5H)-one], 316 nM.
